From PubChem BioAssay AID2060906 (Molecular Pharmacology Branch, DTP, NCI, 2025)

Test system: 485176-168-R4-J1-PDC complex spheroid growth
Experiment: Anticancer human tumor 485176-168-R4-J1-PDC patient-derived pancreatic adenocarcinoma cell line growth inhibition [RAS]
Details: for IC50: curve of first compound; for viability, T/C: stronger effect = lower value
Summary of the method: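 Tumour cells grown as complex spheroids with HUVEC endothelial cells and mesenchymal stem cells, treated with RAS pathway inhibitor combinations. Each agent spans half-log steps from near clinical Cmax, or 10 microM where Cmax is unknown.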

[1] = second compound 0.00316 µM, first compound 0.0316 µM
[2] = second compound 0.00316 µM, first compound 0.1 µM
[3] = second compound 0.00316 µM, first compound 0.316 µM
[4] = second compound 0.00316 µM, first compound 1 µM
[5] = second compound 0.01 µM, first compound 0.0316 µM
[6] = second compound 0.01 µM, first compound 0.1 µM
[7] = second compound 0.01 µM, first compound 0.316 µM
[8] = second compound 0.01 µM, first compound 1 µM
[9] = second compound 0.0316 µM, first compound 0.0316 µM
[10] = second compound 0.0316 µM, first compound 0.1 µM
[11] = second compound 0.0316 µM, first compound 0.316 µM
[12] = second compound 0.0316 µM, first compound 1 µM
[13] = second compound 0.1 µM, first compound 0.0316 µM
[14] = second compound 0.1 µM, first compound 0.1 µM
[15] = second compound 0.1 µM, first compound 0.316 µM
[16] = second compound 0.1 µM, first compound 1 µM
[17] = second compound 0.316 µM, first compound 0.0316 µM
[18] = second compound 0.316 µM, first compound 0.1 µM
[19] = second compound 0.316 µM, first compound 0.316 µM
[20] = second compound 0.316 µM, first compound 1 µM
[21] = second compound 1 µM, first compound 0.0316 µM
[22] = second compound 1 µM, first compound 0.1 µM
[23] = second compound 1 µM, first compound 0.316 µM
[24] = second compound 1 µM, first compound 1 µM
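Further: spheroids exposed to compounds for seven days before readout.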
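Wherever viability, T/C is given: luminescence viability expressed relative to DMSO vehicle wells set as 100%.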

CC1(C)CCC(Nc2ncc(C(F)(F)F)c(-c3c[nH]c4c(P(C)(C)=O)c(C#N)ccc34)n2)CN1 (stereo unspecified) + CCn1c(-c2cc(N3CCN(C)CC3)cnc2C(C)OC)c2c3cc(ccc31)-c1csc(n1)CC(NC(=O)C1CC1C)C(=O)N1CCCC(N1)C(=O)OCC(C)(C)C2
IC50 (second compound 0.000949 µM): > 0.3 µM | IC50 (second compound 0.003 µM): > 0.3 µM | IC50 (second compound 0.00949 µM): 0.0825 µM | IC50 (second compound 0.03 µM): 0.121 µM | IC50 (second compound 0.0949 µM): > 0.3 µM | IC50 (second compound 0.3 µM): 0.07 µM | viability, T/C (second compound 0.000949 µM, first compound 0.000949 µM): 94.9% | viability, T/C (second compound 0.000949 µM, first compound 0.003 µM): 91.1% | viability, T/C (second compound 0.000949 µM, first compound 0.00949 µM): 93% | viability, T/C (second compound 0.000949 µM, first compound 0.03 µM): 59.2% | viability, T/C (second compound 0.000949 µM, first compound 0.0949 µM): 55.1% | viability, T/C (second compound 0.000949 µM, first compound 0.3 µM): 49.3% | viability, T/C (second compound 0.003 µM, first compound 0.000949 µM): 93.5% | viability, T/C (second compound 0.003 µM, first compound 0.003 µM): 101% | viability, T/C (second compound 0.003 µM, first compound 0.00949 µM): 75.3% | viability, T/C (second compound 0.003 µM, first compound 0.03 µM): 54.5% | viability, T/C (second compound 0.003 µM, first compound 0.0949 µM): 52% | viability, T/C (second compound 0.003 µM, first compound 0.3 µM): 54.9% | viability, T/C (second compound 0.00949 µM, first compound 0.000949 µM): 84.9% | viability, T/C (second compound 0.00949 µM, first compound 0.003 µM): 96.3% | viability, T/C (second compound 0.00949 µM, first compound 0.00949 µM): 104% | viability, T/C (second compound 0.00949 µM, first compound 0.03 µM): 55.8% | viability, T/C (second compound 0.00949 µM, first compound 0.0949 µM): 51.5% | viability, T/C (second compound 0.00949 µM, first compound 0.3 µM): 46.9% | viability, T/C (second compound 0.03 µM, first compound 0.000949 µM): 101% | viability, T/C (second compound 0.03 µM, first compound 0.003 µM): 92.8% | viability, T/C (second compound 0.03 µM, first compound 0.00949 µM): 76.5% | viability, T/C (second compound 0.03 µM, first compound 0.03 µM): 64.4% | viability, T/C (second compound 0.03 µM, first compound 0.0949 µM): 49.8% | viability, T/C (second compound 0.03 µM, first compound 0.3 µM): 45.8% | viability, T/C (second compound 0.0949 µM, first compound 0.000949 µM): 87.1% | viability, T/C (second compound 0.0949 µM, first compound 0.003 µM): 76.8% | viability, T/C (second compound 0.0949 µM, first compound 0.00949 µM): 76.2% | viability, T/C (second compound 0.0949 µM, first compound 0.03 µM): 57.4% | viability, T/C (second compound 0.0949 µM, first compound 0.0949 µM): 61.9% | viability, T/C (second compound 0.0949 µM, first compound 0.3 µM): 54.8% | viability, T/C (second compound 0.3 µM, first compound 0.000949 µM): 89.3% | viability, T/C (second compound 0.3 µM, first compound 0.003 µM): 93.4% | viability, T/C (second compound 0.3 µM, first compound 0.00949 µM): 70.5% | viability, T/C (second compound 0.3 µM, first compound 0.03 µM): 57.3% | viability, T/C (second compound 0.3 µM, first compound 0.0949 µM): 47% | viability, T/C (second compound 0.3 µM, first compound 0.3 µM): 47.2%

C[C@@H](NC(=O)c1ncnc(N)c1Cl)c1ncc(C(=O)Nc2cc(C(F)(F)F)c(Cl)cn2)s1 + C=CC(=O)N1CCN(c2nc(OCC3CCCN3C)nc3c(F)c(-c4nc(N)cc(C)c4C(F)(F)F)c(Cl)cc23)C(C)C1
IC50 (second compound 0.00316 µM): > 10 µM | IC50 (second compound 0.01 µM): > 10 µM | IC50 (second compound 0.0316 µM): > 10 µM | IC50 (second compound 0.1 µM): > 10 µM | IC50 (second compound 0.316 µM): > 10 µM | IC50 (second compound 1 µM): > 10 µM | viability, T/C [1]: 106% | viability, T/C [2]: 104% | viability, T/C [3]: 101% | viability, T/C [4]: 86.2% | viability, T/C (second compound 0.00316 µM, first compound 3.16 µM): 84.7% | viability, T/C (second compound 0.00316 µM, first compound 10 µM): 56.9% | viability, T/C [5]: 96.1% | viability, T/C [6]: 94% | viability, T/C [7]: 96.5% | viability, T/C [8]: 75.8% | viability, T/C (second compound 0.01 µM, first compound 3.16 µM): 81.3% | viability, T/C (second compound 0.01 µM, first compound 10 µM): 60.3% | viability, T/C [9]: 111% | viability, T/C [10]: 98.4% | viability, T/C [11]: 100% | viability, T/C [12]: 81.1% | viability, T/C (second compound 0.0316 µM, first compound 3.16 µM): 75.6% | viability, T/C (second compound 0.0316 µM, first compound 10 µM): 59.3% | viability, T/C [13]: 89.5% | viability, T/C [14]: 92.3% | viability, T/C [15]: 101% | viability, T/C [16]: 92% | viability, T/C (second compound 0.1 µM, first compound 3.16 µM): 78.5% | viability, T/C (second compound 0.1 µM, first compound 10 µM): 63.4% | viability, T/C [17]: 108% | viability, T/C [18]: 102% | viability, T/C [19]: 101% | viability, T/C [20]: 79.3% | viability, T/C (second compound 0.316 µM, first compound 3.16 µM): 83.2% | viability, T/C (second compound 0.316 µM, first compound 10 µM): 53% | viability, T/C [21]: 100% | viability, T/C [22]: 95.7% | viability, T/C [23]: 77.3% | viability, T/C [24]: 88.5% | viability, T/C (second compound 1 µM, first compound 3.16 µM): 63.7% | viability, T/C (second compound 1 µM, first compound 10 µM): 52.1%

CCN1CCN(Cc2ccc(Nc3ncc(F)c(-c4cc(F)c5nc(C)n(C(C)C)c5c4)n3)nc2)CC1 + C=CC(=O)N1CCN(c2nc(OCC3CCCN3C)nc3c(F)c(-c4nc(N)cc(C)c4C(F)(F)F)c(Cl)cc23)C(C)C1
IC50 (second compound 0.00316 µM): > 1 µM | IC50 (second compound 0.01 µM): > 1 µM | IC50 (second compound 0.0316 µM): > 1 µM | IC50 (second compound 0.1 µM): > 1 µM | IC50 (second compound 0.316 µM): > 1 µM | IC50 (second compound 1 µM): > 1 µM | viability, T/C (second compound 0.00316 µM, first compound 0.00316 µM): 102% | viability, T/C (second compound 0.00316 µM, first compound 0.01 µM): 92.7% | viability, T/C [1]: 107% | viability, T/C [2]: 88.7% | viability, T/C [3]: 69.1% | viability, T/C [4]: 59.7% | viability, T/C (second compound 0.01 µM, first compound 0.00316 µM): 108% | viability, T/C (second compound 0.01 µM, first compound 0.01 µM): 90.1% | viability, T/C [5]: 108% | viability, T/C [6]: 80.5% | viability, T/C [7]: 80.2% | viability, T/C [8]: 77.3% | viability, T/C (second compound 0.0316 µM, first compound 0.00316 µM): 101% | viability, T/C (second compound 0.0316 µM, first compound 0.01 µM): 89.8% | viability, T/C [9]: 88.2% | viability, T/C [10]: 80.5% | viability, T/C [11]: 95.8% | viability, T/C [12]: 53.9% | viability, T/C (second compound 0.1 µM, first compound 0.00316 µM): 116% | viability, T/C (second compound 0.1 µM, first compound 0.01 µM): 102% | viability, T/C [13]: 89% | viability, T/C [14]: 93.5% | viability, T/C [15]: 83.7% | viability, T/C [16]: 68.1% | viability, T/C (second compound 0.316 µM, first compound 0.00316 µM): 107% | viability, T/C (second compound 0.316 µM, first compound 0.01 µM): 108% | viability, T/C [17]: 77.5% | viability, T/C [18]: 92% | viability, T/C [19]: 75% | viability, T/C [20]: 60.1% | viability, T/C (second compound 1 µM, first compound 0.00316 µM): 97.1% | viability, T/C (second compound 1 µM, first compound 0.01 µM): 92.6% | viability, T/C [21]: 111% | viability, T/C [22]: 87% | viability, T/C [23]: 83.9% | viability, T/C [24]: 60%
